Measurements as given in patent EP0270316A2, “Topical compositions comprising 1-substituted imidazoles and NSAIDs for treatment of acne” (PFIZER INC., priority 1986, dated 1988).
Converted amounts (≈) assume the structure as drawn.

Key:
[1] = human skin treated with radiolabeled tioconazole; frozen section autoradiography
Excerpt: This property is readily measurable by methods known to those skilled in the art such as, for example, skin layer analysis which measures the amount of radiolabeled drug, e.g. tioconazole, in human skin treated with compositions containing the drug. [[…] et al., Brit. J. Dermatol. 115, Suppl. 31, 36-40 (1986)].

P. acnes = assay: microbe, parasite or virus in culture; conditions: Cutibacterium acnes, read-out: average minimum inhibitory concentration (MIC)

localization in skin [1]: localized in the sebaceous follicle
MIC (P. acnes): 5 µg/mL (≈ 12.9 µM)
SMILES: Clc1ccc(C(Cn2ccnc2)OCc2ccsc2Cl)c(Cl)c1 (centres unmarked) [Tioconazole, 1-[2-[(2-chloro-3-thienyl)methoxy]-2-(2,4-dichlorophenyl)ethyl]-1H-imidazole]
